# In patent publication US6610744B2, “Methods of treatment with compounds having RARα receptor specific or selective activity” (Allergan, Inc., priority 1995, dated 2003):
# What was measured:
# [1] = tested on: AML-193 cells (acute monocytic leukemia); assay: AML 193 cell culture assay (3H-thymidine incorporation); format: cell-based, human; conditions: FIG. 2
# Outline: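 t-RA from 1 mM ethanol stock, diluted in medium; ethanol-matched controls, subdued light. AML-193 cells (GM-CSF/insulin-dependent) at 1,000 cells/well incubated 96 h at 37 °C with retinoids, then 6 h with 1 μCi [3H]-thymidine; TCA-precipitated DNA counted by scintillation, mean dpm of triplicates ±SEM.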
# [2] = tested on: limb bud mesenchymal cells; assay: Chondrogenesis suppression bioassay (teratogenic potency); format: cell-based; conditions: read-out: IC50 (50% inhibition of chondrogenesis); mouse limb bud spot cultures, 96 hours after plating; greater IC50 signifies lesser teratogenecity
# Outline: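 Day-12 mouse forelimb-bud mesenchymal cells were grown as high-density spot cultures in Eagle's MEM ±10% FBS, with retinoid (0.3 ng/ml–3 μg/ml, 1 nM–10 μM; ethanol vehicle ≤1%) added at 24 h. At 96 h, cultures were fixed and Alcian blue–stained (pH 1.0), and cartilage nodules were counted (four replicates) to give IC50 in ng/ml.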
# [3] = Weight loss in rats treated for 3 days; format: in vivo, rat
# Protocol: Weight loss or gain that experimental animals experience upon administration of retinoid compounds is another test of the drug's toxicity, with significant weight loss at relatively low doses indicating a significant toxic side effect of the retinoid. In one experiment, groups of 5 rats were treated with varying doses (administered in corn oil) of a test retinoid for 3 days. The rats were euthanized 24 hours after the last dose.
structure (smiles),measurement,setting,value
CC(C)(C)c1cc(C(=O)Nc2ccc(C(=O)O)c(F)c2)cc(C(C)(C)C)n1 [Compound 42],growth of AML 193 malignant cells,[1]; 96 hours,inhibited the growth
same,growth of AML 193 cells at low concentrations,[1]; low concentrations,inhibit the malignant cell growth at low concentrations
same,IC50,[2],0.065 µg/mL
same,mucocutaneous toxicity,"[3]; rats, 10, 30 and 90 μmol/kg/day for 3 days",significant mucocutaneous toxicity was not observed
same,weight loss compared to control,"[3]; rats, daily doses up to 90 μmol/kg/day in corn oil for 3 days, FIG. 6, FIG. 7","virtually no weight loss, as compared to the control, except in a very high dose (90 μmol/kg/day)"
